Test results: US20230295088A1, “INSULIN SENSITIZERS FOR THE TREATMENT OF DIABETES MELLITUS” (University of Iowa Research Foundation, priority 2020, published 2023)
“Also recorded” adds a separate entry of the source.

What was measured:
primary adipocytes = assay: Insulin-stimulated glucose uptake in primary adipocytes; assay type: cell-based, mouse
Method: C3 potentiates insulin action in primary adipocytes and in live mice. Using HBG4 mice, insulin stimulated GLUT4 translocation of endogenous GLUT4 was measured in primary skeletal muscle fibers and primary adipocytes. Enhancement of insulin-stimulated translocation of endogenous GLUT4 was also shown in primary adipocytes in the presence of C3. In parallel dishes, increased insulin-stimulated glucose uptake in HBG4 primary adipocyte treated with C3 was found. […] To determine if the HBG4 mouse can be used to measure GLUT4 translocation in vivo, HBG4 mice were pretreated with daily IP injections of vehicle or 50 mg/Kg C3 for 3 days. On the day of the experiment, mice were injected with vehicle or insulin IP followed by a subcutaneous injection of LgBiT and substrate around the leg muscles. Mice were then anesthetized and placed into an IVIS system to measure luminescence. […] Baseline signal was detected in vehicle and C3 treated HBG4 mice. […] It also further confirms the insulin-sensitizing activity of C3 in vivo.

liver = assay: Liver toxicity markers and liver triglyceride in treated mice; assay type: in vivo, mouse
Excerpt: (§1) C3 is not liver toxic and acts through a different mechanism than TZDs. […] Deleterious side effect or TZDs are due to their agonism of PPARg.

lean mice = assay: Glucose tolerance test in lean mice; assay type: in vivo, mouse; conditions: single injection before GTT
Method: C3 improves glucose tolerance in lean and obese insulin resistant mice. To test whether C3 improves glucose handling, lean mice were injected with vehicle or C3 30 minutes before performing a glucose tolerance test. […] To further determine if C3 can reverse glucose intolerance, WT mice were made insulin-resistant by feeding them a high fat diet (HFD) for a period of 10 weeks. Diet induced obese (DIO) mice were then injected with vehicle or C3 for 2 weeks while remaining on HFD. […] Together those results establish in vivo efficacy of C3 for the treatment of insulin resistance.

[1] = test system: GLUT4 translocation in HBG4 mice; assay: In vivo GLUT4 translocation in HBG4 mice (IVIS luminescence); parameters: species or system mouse; conditions: HBG4 mice, daily IP 50 mg/Kg for 3 days, insulin IP
Method: (§2) C3 potentiates insulin action in primary adipocytes and in live mice. Using HBG4 mice, insulin stimulated GLUT4 translocation of endogenous GLUT4 was measured in primary skeletal muscle fibers and primary adipocytes. Enhancement of insulin-stimulated translocation of endogenous GLUT4 was also shown in primary adipocytes in the presence of C3. In parallel dishes, increased insulin-stimulated glucose uptake in HBG4 primary adipocyte treated with C3 was found. […] To determine if the HBG4 mouse can be used to measure GLUT4 translocation in vivo, HBG4 mice were pretreated with daily IP injections of vehicle or 50 mg/Kg C3 for 3 days. On the day of the experiment, mice were injected with vehicle or insulin IP followed by a subcutaneous injection of LgBiT and substrate around the leg muscles. Mice were then anesthetized and placed into an IVIS system to measure luminescence. […] Baseline signal was detected in vehicle and C3 treated HBG4 mice. […]
DIO HBG4 mice were treated with vehicle or C59 for 2 weeks and injected i.v. with an adenovirus coding for a secreted form of LgBiT (allowing LgBiT production and secretion predominantly by the liver into the circulation) 2 days prior to the experiment. Animal were then injected with saline or insulin 10 minutes before i.v. injection of substrate and luminescence imaging using an IVIS system.

PPARg = biological target: T1, PPARg (Homo sapiens, UniProt P37231); assay: Luminescent PPARg reporter assay in vitro; assay type: cell-based
T1 sequence (P37231 1-505): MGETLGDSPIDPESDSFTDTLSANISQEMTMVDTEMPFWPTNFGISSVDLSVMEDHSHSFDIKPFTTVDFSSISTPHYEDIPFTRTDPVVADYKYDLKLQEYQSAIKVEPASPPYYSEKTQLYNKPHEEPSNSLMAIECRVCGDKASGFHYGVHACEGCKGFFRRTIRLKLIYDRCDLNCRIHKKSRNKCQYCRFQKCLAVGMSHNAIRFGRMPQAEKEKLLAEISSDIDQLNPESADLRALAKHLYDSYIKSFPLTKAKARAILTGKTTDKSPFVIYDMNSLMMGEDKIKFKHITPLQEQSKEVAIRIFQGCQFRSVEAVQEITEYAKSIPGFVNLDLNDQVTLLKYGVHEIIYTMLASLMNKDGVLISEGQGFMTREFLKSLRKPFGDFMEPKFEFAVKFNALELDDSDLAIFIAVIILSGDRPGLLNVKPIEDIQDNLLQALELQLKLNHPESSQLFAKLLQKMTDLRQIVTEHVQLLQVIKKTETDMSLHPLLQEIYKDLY
Excerpt: as §1

[2] = test system: endogenous GLUT4 in primary adipocytes; assay: Insulin-stimulated translocation of endogenous GLUT4 in HBG4 primary adipocytes; assay type: cell-based, mouse
Method: Generating a mouse model for measurement of GLUT4 translocation ex vivo and in-vivo. To enable the validation of identified compounds in a relevant system, a mouse model in which the coding sequence for HiBiT was inserted in the first extracellular loop of endogenous GLUT4 using CRISPR/Cas9 (HBG4 mouse) was prepared. […] GLUT4 was detected in skeletal muscle, white adipose tissue, and brown adipose tissue but not in the brain, spleen, liver, or pancreas, thus, confirming the normal distribution of HiBit-labeled GLUT4 and the ability of this assay to detect endogenous GLUT4 in mouse tissues.
as §2, with “On the day of the experiment, mice were injected with vehicle or insulin IP followed by a subcutaneous injection of LgBiT and substrate around the leg muscles.” left out

[3] = test system: GLUT4 translocation in C2C12 myoblast cell line stably expressing HiBiT-GLUT4 (HBG4); assay: HiBiT (NanoBit) luminescence GLUT4 translocation assay in HBG4 C2C12 cells; assay type: cell-based, mouse
Excerpt: An assay was used to identify potentiators of insulin-stimulated GLUT4 translocation. In one embodiment, the assay employs Nanobit technology. This technology is based on the recombination of two complementary fragments, HiBiT and LgBiT, of the Nanoluc luciferase. HiBit was fused to an extracellular region of GLUT4 to allow for the rapid quantitation of its the surface density in live cells by adding the reconibinantly produced complementary fragment LgBiT and the luciferase substrate. Since LgBiT is not membrane permeant, only proteins at the plasma membrane are quantified. To measure GLUT4 translocation, a stable C2C12 myoblast cell line was prepared by expressing a HiBiT-tagged mouse GLUT4. […] The Chembridge Diverset library of 49,600 compounds was screened and 1264 hits were identified. A subset of those hits were selected and retested in the presence and absence of insulin.
Development of a HTS assay for real-time measurement of GLUT4 translocation. To measure GLUT4 translocation in a homogenous and HIS amenable manner, NanoBit technology was used. This technology relies on the rapid recombination of 2 fragments of the Nanoluc luciferase (HiBit and LgBiT) with high affinity for each other. Fragments have no enzymatic activity on their own but generate a bright luminescent signal when recombined. A C2C12 myoblast cell line was prepared that stably expressed HiBiT-GLUT4 (HBG4), in which the small 11 amino acid HiBiT fragment was inserted into the first extracellular loop of GLUT4. A C-terminal mCherry was also added for microscopic detection. The C2C12 line was chosen as an in vitro model because it is derived from skeletal myoblasts and translocate GLUT4 in response to insulin. Detection of plasma membrane density of HBG4 is achieved by adding recombinant LgBit and substrate to live cells. The assay can be conducted as an endpoint where cells are incubated with insulin before measuring luminescence or as a kinetic assay by adding LgBiT and substrate at the beginning of the experiment and monitor real-time insulin-stimulated GLUT4 translocation.
An assay to measure GLUT4 translocation in a homogenous and HIS amenable manner using NanoBit technology was developed. This technology relies on the rapid recombination of 2 fragments of the Nanoiuc luciferase (HiBit and LgBiT) with high affinity for each other. Fragments have no enzymatic activity on their own but generate a bright luminescent signal when recombined. A C2C12 myoblast cell line stably expressing HiBiT-GLUT4 (HBG4), in which the small 11 amino acid HiBiT fragment was inserted into the first extracellular loop of GLUT4 was prepared. A C-terminal mCherry was also added for microscopic detection (FIGS. 1A and B). The C2C12 line was chosen as an in-vitro model because it is derived from skeletal myoblasts and translocates GLUT4 in response to insulin. Detection of plasma membrane density of HBG4 is achieved by adding recombinant LgBit and substrate to live cells (FIG. 1C). The assay can be conducted as a kinetic assay by adding LgBiT and substrate at the beginning of the experiment and monitoring real-time insulin-stimulated GLUT4 translocation (FIGS. 1D and E).

[4] = test system: diet-induced obese (DIO) mice; assay: Glucose tolerance, fasting glucose and insulin in diet-induced obese (DIO) insulin-resistant mice; assay type: in vivo, mouse
Method: To test whether C3 improves glucose handling, WT mice were made insulin-resistant by feeding them a high fat diet (HFD) for a period of 10 weeks. After 10 weeks, mice were injected with vehicle. C3 (20 mg/kg), or the TZD rosiglitazone (20 mg/kg) for 2 weeks while remaining on the HFD. […] To further test the in vivo efficacy of C3, a glucose tolerance test (GTT) was perfromed.
To test whether C3 improves glucose handling, lean mice were injected with vehicle or C3 30 minutes before performing a glucose tolerance test. […] To further determine if C3 can reverse glucose intolerance, WT mice were made insulin-resistant by feeding them a high fat diet (HFD) for a period of 10 weeks. Diet induced obese (DIO) mice were then injected with vehicle or C3 for 2 weeks while remaining on HFD.

[5] = DIO mice, 2 weeks treatment (20 mg/kg)

O=C(Nc1ccc(Cl)c(Cl)c1)C12CC3CC(CC(C3)C1)C2 [Compound C3]
insulin-stimulated glucose uptake (primary adipocytes): significantly improved; also recorded: increased | liver triglyceride content (liver; DIO mice, compared to saline treated mice): significant decrease | plasma level of liver enzyme ALT (liver; treated mice): Neither liver toxicity markers were increased | plasma level of liver enzyme AST (liver; treated mice): Neither liver toxicity markers were increased | glucose clearance in glucose tolerance test (lean mice): drastically improved; also recorded: significantly accelerated | insulin-induced luminescence (GLUT4 translocation) in vivo [1]: further increased | PPARg agonist activity (PPARg): did not activate; also recorded: no agonist activity; also recorded: neither C3 nor C59 have PPARγ agonist activity | insulin-stimulated translocation of endogenous GLUT4 [2]: Enhancement | GLUT4 translocation on its own ([3]; in the absence of insulin, HBG4 C2C12 cells): no effect | insulin-stimulated GLUT4 translocation ([3]; in the presence of insulin, WT HBG4 C2C12 cells): significantly potentiated; also recorded: enhanced | glucose handling in glucose tolerance test ([4]; DIO mice (HFD 10 weeks), injected for 2 weeks (20 mg/kg)): drastically improved; also recorded: rapidly cleared glucose; also recorded: very significant improvement | insulin response to the glucose challenge ([4]; DIO mice, 20 mg/kg for 2 weeks, GTT): normal insulin response | fasting blood glucose [4, 5]: significantly decreased | fasting plasma insulin [4, 5]: significantly decreased
